Read-outs that look alike come from different tables or passages of the source.
Experiments:
RS4; 11 cells = test: Tumor proliferation inhibitory activity test (MTS) on RS4; 11; format: cell-based; conditions: Homo sapiens, RS4-11, 72 h, 3 days incubation
How it was run: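 RS4;11 cells were exposed to serially diluted compound (0.2% DMSO control) for 3 days at 37 °C/5% CO2, followed by MTS for 3–4 h. Read-out was OD490−OD690, and inhibition was calculated relative to the DMSO and blank wells.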

human CYP3A4 enzyme = human CYP3A4 enzyme (Homo sapiens (Human), UniProt P08684); test: CYP3A4 enzyme inhibitory activity (Vivid CYP3A4 Green screening kit)
human CYP3A4 enzyme, sequence (P08684 whole entry): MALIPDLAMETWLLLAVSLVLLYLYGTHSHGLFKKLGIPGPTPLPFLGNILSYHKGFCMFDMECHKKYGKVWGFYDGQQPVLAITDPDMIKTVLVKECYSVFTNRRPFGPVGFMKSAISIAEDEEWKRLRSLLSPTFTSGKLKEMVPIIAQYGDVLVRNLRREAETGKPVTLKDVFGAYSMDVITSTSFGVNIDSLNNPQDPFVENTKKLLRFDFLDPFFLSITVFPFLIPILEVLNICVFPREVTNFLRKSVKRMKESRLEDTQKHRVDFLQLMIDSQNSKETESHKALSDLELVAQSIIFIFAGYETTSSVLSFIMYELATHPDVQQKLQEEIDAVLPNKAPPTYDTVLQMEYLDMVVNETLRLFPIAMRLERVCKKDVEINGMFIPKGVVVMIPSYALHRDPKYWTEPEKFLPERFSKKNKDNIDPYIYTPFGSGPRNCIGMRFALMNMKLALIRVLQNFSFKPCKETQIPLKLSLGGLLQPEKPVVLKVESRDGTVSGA
Method: The inhibitory activity of compounds on human CYP3A4 enzyme was detected using a VIVID™ CYP3A4 GREEN SCRNING KIT reagent kit. The Vivid™ CYP450 screening kit includes a Vivid™ substrate, Vivid™ fluorescence standard, reaction buffer, Vivid™ regeneration system, NADP+ and CYP450 BACULOSOMES™ Plus reagent. Operations were performed following the instructions, and a blank control group was set up without adding any compounds.
The IC50 value of the compounds inhibiting human CYP3A4 enzyme was calculated using Graphpad Prism 7.00 software through the formula Y=100/(1+10^((Log IC50−X)*HillSlope)).

BCL2 (D103Y) = BCL2 (D103Y) (Homo sapiens (Human), UniProt P10415, D103Y); test: Molecular level activity test of BCL2 (D103Y) (HTRF, binding to Bim peptide); conditions: read-out: BCL-2 (D103Y) (nM) (inhibitory activity, IC50)
How it was run: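 His-tagged recombinant protein mixed with biotinylated BIM peptide and compound (2% DMSO), reacted 1 h. Anti-His and streptavidin-XL665 detection reagents then added and incubated 4 h at room temperature before HTRF read-out of binding inhibition.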

BCL2 (G101V) = BCL2 (G101V) (Homo sapiens (Human), UniProt P10415, G101V); test: Molecular level activity test of anti-apoptotic protein BCL2 (G101V) (HTRF, binding to Bim peptide); conditions: inhibition of BCL2 (G101V) binding to Bim peptide, read-out: BCL-2 (G101V)
How it was run: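 His-tagged recombinant BCL2 (G101V) incubated 1 h with biotin-BIM peptide and compound (2% DMSO), then anti-His and streptavidin-XL665 detection reagents added for 4 h at room temperature. HTRF signal reflects compound effect on BCL2–BIM binding.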

BCL-XL = BCL-XL (Homo sapiens (Human), UniProt Q07817); test: BCL-XL enzyme molecular level activity test (HTRF, binding to BIM peptide); conditions: binding of BCL-XL to BIM peptide, read-out: BCL-XL inhibitory activity (IC50)
BCL-XL, sequence (Q07817 whole entry): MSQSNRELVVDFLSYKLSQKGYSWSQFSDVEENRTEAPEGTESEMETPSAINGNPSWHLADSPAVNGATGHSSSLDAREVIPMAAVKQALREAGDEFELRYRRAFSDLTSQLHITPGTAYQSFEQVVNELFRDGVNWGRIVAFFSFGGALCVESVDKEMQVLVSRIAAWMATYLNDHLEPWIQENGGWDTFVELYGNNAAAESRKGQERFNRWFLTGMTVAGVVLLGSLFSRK
How it was run: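 HTRF binding assay: His-tagged recombinant BCL-XL with biotin-BIM peptide and compound (2% DMSO), 1 h. Anti-His and streptavidin-XL665 detection reagents added, 4 h at room temperature. Excitation 320 nm; 665/615 nm ratio reflects binding, with no-protein background and no-compound full-binding controls.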

BCL2 = BCL2 (Homo sapiens (Human), UniProt P10415); test: Molecular level activity test of anti-apoptotic protein BCL2 (HTRF, binding to Bim peptide); conditions: HTRF, binding of BCL2 to Bim peptide; read-out: BCL2 nM (inhibitory activity, IC50)
How it was run: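 Signal comes from proximity of anti-His-labelled BCL2 and streptavidin-XL665-bound biotin-BIM peptide. Test compounds, added in 2% DMSO, were preincubated with protein and peptide for one hour; detection reagents then incubated four hours at room temperature before reading.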

[1] = read-out: CYP3A4 (IC50), Vivid CYP3A4 Green screening kit

IC50 (BCL-XL; values in nM) [µM] | Compound | IC50 (RS4; 11 cells) [nM] | IC50 (human CYP3A4 enzyme; [1]) [nM] | IC50 (BCL2 (D103Y)) [nM] | IC50 (BCL2 (G101V)) [nM] | IC50 (BCL-XL; values given in μM) [µM] | IC50 (BCL2) [nM] | IC50 (human CYP3A4 enzyme) [nM]
 | COc1ccc(CN2CCN(C3CC4(CCN(c5cc(Oc6cnc7[nH]ccc7c6)c(C(=O)NS(=O)(=O)c6cc([N+](=O)[O-])c(NCC7CCOCC7)c7[nH]cnc67)cc5F)CC4)C3)[C@H](c3ccccc3C(C)C)C2)cc1 [compound 263, (R)-2-((1H-pyrrolo[2,3-b]pyrid-5-yl)oxy)-5-fluoro-4-(2-(2-(2-isopropylphenyl)-4-(4-methoxybenzyl)piperazin-1-yl)-7-azaspiro[3.5]non-7-yl)-N-((6-nitro-7-(((tetrahydro-2H-pyran-4-yl)methyl)amino)-1H-benzo[d]imidazol-4-yl)sulfonyl)benzamide] | 0.5 to 1 | > 20000 | < 10 | < 10 | 1.3 | < 10 | 
 | COc1ccc(CN2CCN(C3CC4(CCN(c5ccc(C(=O)NS(=O)(=O)c6cc([N+](=O)[O-])c(NC[C@H]7CC[C@](C)(O)CC7)c7[nH]cnc67)c(Oc6cnc7[nH]ccc7c6)c5)CC4)C3)[C@H](c3ccccc3C(C)C)C2)cc1 [compound 259, 2-((1H-pyrrolo[2,3-b]pyrid-5-yl)oxy)-N-((7-((((1r,4r)-4-hydroxy-4-methylcyclohexyl)methyl)amino)-6-nitro-1H-benzo[d]imidazol-4-yl)sulfonyl)-4-(2-((R)-2-(2-isopropylphenyl)-4-(4-methoxybenzyl)piperazin-1-yl)-7-azaspiro[3.5]non-7-yl)benzamide] | < 0.5 | > 20000 | < 10 | < 10 |  | < 10 | 
 | COc1ccc(CN2CCN(C3CC4(CCN(c5cc(Oc6cnc7[nH]ccc7c6)c(C(=O)NS(=O)(=O)c6ccc(NCC7(F)CCN(C8COC8)CC7)c([N+](=O)[O-])c6)cn5)CC4)C3)C(c3ccccc3C(C)C)C2)cc1 (stereo not shown) [compound 053, 4-((1H-pyrrolo[2,3-b]pyrid-5-yl)oxy)-N-((4-(((4-fluoro-1-(oxocyclobut-3-yl)piperid-4-yl)methyl)amino)-3-nitrophenyl)sulfonyl)-6-(2-(2-(2-isopropylphenyl)-4-(4-methoxybenzyl)piperazin-1-yl)-7-azaspiro[3.5]non-7-yl) nicotinamide] | < 0.5 | > 20000 | < 10 | < 10 |  | < 10 | 
 | CC(C)c1ccccc1[C@@H]1CN(Cc2cccc(F)c2F)CCN1C1CC2(CCN(c3cc(Oc4cnc5[nH]ccc5c4)c(C(=O)NS(=O)(=O)c4ccc(NCC5(F)CCOCC5)c([N+](=O)[O-])c4)cc3F)CC2)C1 [compound 189, (R)-2-((1H-pyrrolo[2,3-b]pyrid-5-yl)oxy)-4-(2-(4-(2,3-difluorobenzyl)-2-(2-isopropylphenyl)piperazin-1-yl)-7-azaspiro[3.5]non-7-yl)-5-fluoro-N-((4-(((4-fluorotetrahydro-2H-pyran-4-yl)methyl)amino)-3-nitrophenyl)sulfonyl)benzamide] | < 0.5 | > 20000 | < 10 | < 10 | 1.9 | < 10 | 
 | COc1ccc(CN2CCN(C3CC4(CCN(c5cc(Oc6cnc7[nH]ccc7c6)c(C(=O)NS(=O)(=O)c6ccc(NCC7CCOCC7)c([N+](=O)[O-])c6)cn5)CC4)C3)C(c3ccccc3C(C)C)C2)cc1 (stereo not shown) [compound 063, 4-((1H-pyrrolo[2,3-b]pyrid-5-yl)oxy)-6-(2-(2-(2-isopropylphenyl)-4-(4-methoxybenzyl)piperazin-1-yl)-7-azaspiro[3.5]non-7-yl)-N-((3-nitro-4-(((tetrahydro-2H-pyran-4-yl)methyl)amino)phenyl)sulfonyl) nicotinamide] | < 0.5 | > 20000 | < 10 | < 10 | > 1 | < 10 | 
 | COc1ccc(CN2CCN(C3CC4(CCN(c5cc(Oc6cnc7[nH]ccc7c6)c(C(=O)NS(=O)(=O)c6ccc(NCC7(F)CCOCC7)c([N+](=O)[O-])c6)cn5)CC4)C3)[C@H](c3ccccc3C(C)C)C2)cc1 [compound 258, (R)-4-((1H-pyrrolo[2,3-b]pyrid-5-yl)oxy)-N-((4-(((4-fluorotetrahydro-2H-pyran-4-yl)methyl)amino)-3-nitrophenyl)sulfonyl)-6-(2-(2-(2-isopropylphenyl)-4-(4-methoxybenzyl)piperazin-1-yl)-7-azaspiro[3.5]non-7-yl) nicotinamide] | < 0.5 | > 20000 | < 10 | < 10 |  | < 10 | 
> 0.5 | COc1ccc(CN2CCN(C3CC4(CCN(c5cc(Oc6cnc7[nH]ccc7c6)c(C(=O)NS(=O)(=O)c6ccc(NCC7(F)CCOCC7)c([N+](=O)[O-])c6)cc5F)CC4)C3)[C@H](c3ccccc3C(C)C)C2)cc1CN(C)C [compound 250, (R)-2-((1H-pyrrolo[2,3-b]pyrid-5-yl)oxy)-4-(2-(4-(3-((dimethylamino)methyl)-4-methoxybenzyl)-2-(2-isopropylphenyl)piperazin-1-yl)-7-azaspiro[3.5]non-7-yl)-5-fluoro-N-((4-(((4-fluorotetrahydro-2H-pyran-4-yl)methyl)amino)-3-nitrophenyl)sulfonyl)benzamide] | 0.5 to 1 |  | < 10 | < 10 |  | < 10 | 
> 0.5 | COc1ccc(CN2CCN(C3CC4(CCN(c5cc(Oc6cnc7[nH]ccc7c6)c(C(=O)NS(=O)(=O)c6ccc(NCC7(F)CCOCC7)c([N+](=O)[O-])c6)cc5F)CC4)C3)[C@H](c3ccccc3C(C)C)C2)cc1CN1CCCC1 [compound 251, (R)-2-((1H-pyrrolo[2,3-b]pyrid-5-yl)oxy)-5-fluoro-N-((4-(((4-fluorotetrahydro-2H-pyran-4-yl)methyl)amino)-3-nitrophenyl)sulfonyl)-4-(2-(2-(2-isopropylphenyl)-4-(4-methoxy-3-(pyrrolidin-1-ylmethyl)benzyl)piperazin-1-yl)-7-azaspiro[3.5]non-7-yl)benzamide] | 0.5 to 1 |  | < 10 | < 10 |  | < 10 | 
 | CC(C)c1ccccc1[C@@H]1CCCN1C1CC2(CCN(c3cc(Oc4cnc5[nH]ccc5c4)c(C(=O)NS(=O)(=O)c4cc([N+](=O)[O-])c(NCC5(F)CCN(C6COC6)CC5)c5[nH]cnc45)cn3)CC2)C1 [compound 019, (S)-4-((1H-pyrrolo[2,3-b]pyrid-5-yl)oxy)-N-((7-(((4-fluoro-1-(oxocyclobut-3-yl)piperid-4-yl)methyl)amino)-6-nitro-1H-benzo[d]imidazol-4-yl)sulfonyl)-6-(2-(2-(2-isopropylphenyl)pyrrolidin-1-yl)-7-azaspiro[3.5]non-7-yl) nicotinamide] | 0.5 to 1 |  | < 10 | < 10 | > 1 | < 10 | 
 | COc1ccc(CN2CCN(C3CC4(CCN(c5cc(Oc6cnc7[nH]ccc7c6)c(C(=O)NS(=O)(=O)c6ccc(NCC7CCOCC7)c([N+](=O)[O-])c6)cn5)CC4)C3)[C@H](c3ccccc3C(C)C)C2)cc1 [compound 257, (R)-4-((1H-pyrrolo[2,3-b]pyrid-5-yl)oxy)-6-(2-(2-(2-isopropylphenyl)-4-(4-methoxybenzyl)piperazin-1-yl)-7-azaspiro[3.5]non-7-yl)-N-((3-nitro-4-(((tetrahydro-2H-pyran-4-yl)methyl)amino)phenyl)sulfonyl) nicotinamide] | < 0.5 | > 20000 | < 10 | < 10 |  | < 10 | 
 | COc1ccc(CN2CCN(C3CC4(CCN(c5cc(Oc6cnc7[nH]ccc7c6)c(C(=O)NS(=O)(=O)c6cc([N+](=O)[O-])c(NCC7(F)CCOCC7)c7[nH]cnc67)cc5F)CC4)C3)[C@H](c3ccccc3C(C)C)C2)cc1 [compound 264, (R)-2-((1H-pyrrolo[2,3-b]pyrid-5-yl)oxy)-5-fluoro-N-((7-(((4-fluorotetrahydro-2H-pyran-4-yl)methyl)amino)-6-nitro-1H-benzo[d]imidazol-4-yl)sulfonyl)-4-(2-(2-(2-isopropylphenyl)-4-(4-methoxybenzyl)piperazin-1-yl)-7-azaspiro[3.5]non-7-yl)benzamide] | 0.5 to 1 | > 20000 | < 10 | < 10 |  | < 10 | 

Compound | IC50 (BCL-XL; values in nM) [µM] | IC50 (RS4; 11 cells) [nM] | IC50 (human CYP3A4 enzyme; [1]) [nM] | IC50 (BCL2 (D103Y)) [nM] | IC50 (BCL2 (G101V)) [nM] | IC50 (BCL-XL; values given in μM) [µM] | IC50 (BCL2) [nM] | IC50 (human CYP3A4 enzyme) [nM]
CC(C)c1ccccc1[C@@H]1CCCN1C1CC2(CCN(c3ccc(C(=O)NS(=O)(=O)c4cc([N+](=O)[O-])c(NCC5(F)CCN(C6COC6)CC5)c5[nH]cnc45)c(Oc4cnc5[nH]ccc5c4)c3)CC2)C1 [compound 002] | > 0.5 | 0.5 to 1 |  | < 10 | < 10 |  | < 10 | > 20000
